Results reported in patent publication US9617330B2, “Chemorepulsion of cells” (Celtaxsys, Inc., priority 2006, dated 2017).

Experiments:
[1] = tested on: B cells; assay: High throughput transmigration assay (Example 9), chemorepulsion; type: cell-based, human; parameters: key: ratio of chemorepulsion (CR) to spontaneous migration (SM), CR/SM; details: mean of three donors at concentration of highest activity
Excerpt: (§1) An agent's repellent index is the ratio of chemorepulsion (CR) to spontaneous migration (SM) induced by the agent, i.e., [(CR)/(SM)]. […] For example, in calculating a RI for an agent, migratory responses including chemorepulsion (CR) and spontaneous migration (SM) may be measured over several decades or log scales of concentration. If, over any two consecutive measurements at concentrations which differ by at least 10 fold, the ratio of CR to SM at each of the two contiguous measurements is equal to or greater than 1.2, then the agent is considered a validated chemorepellent.
(§2) For primary human T cells, up to 80 ml of blood is drawn from a human donor in sodium heparin Vacutainer tubes (Becton-Dickinson). The blood (between 10 and 15 ml per tube) is then layered onto 30 ml of Lymphocyte Separation Medium (LSM) (Cellgro, Herndon, Va.) in a 50 ml conical centrifuge tube and centrifuged for 20 minutes at 2440×g in a swinging bucket rotor. After removing the majority of the plasma from the top of each tube, the peripheral blood mononucleocyte (PBMC) layer is removed and transferred to fresh 50 ml conical centrifuge tubes. The tubes are then filled to 50 ml with IMDM and centrifuged for 10 minutes at 500×g. All but approximately 5 ml of the supernatant is then removed and the pellet resuspended with 25 ml IMDM and the centrifugation repeated. After removal of the supernatant, the cells are resuspended and combined to one 50 ml tube (per subject) and brought to a total volume of 50 ml. The cells are then counted using a hemacytometer (Reichert). After centrifugation under the same conditions, the supernatant is removed and the cells processed using the appropriate Miltenyi Biotec (Auburn, Calif.) negative selection kit to enrich for the desired cell type according to manufacturers instructions. The resulting purified cells are then diluted to 50 ml with IMDM. After centrifugation at 500×g for 10 minutes, the supernatant is removed and the cells resuspended in 15 ml IMDM supplemented with 0.5% heat inactivated fetal calf serum (FCS) (ATCC, Manassas, Va.). After another centrifugation for 10 minutes at 500×g, the supernatant is again removed and the cells resuspended in 7 ml 0.5% FCS in IMDM (assay medium) and transferred to a 15 ml conical centrifuge tube. The cells are then quantitated using a hemacytometer. When enriching for monocytes, the concentration of cells is adjusted to 2×10^7 per ml by centrifugation and removal of the appropriate volume of assay medium. For all other cell types, the tube cap is replaced with one from a 25 cm^2 tissue culture flask (Corning) and the cells stored overnight in a humidified 37° C. incubator with 5% CO2. The concentration of the cells is adjusted as for monocytes just prior to transmigration assay of Example 9.
(§3) Migration away from a chemical or biological agent (chemorepulsion (CR)) was measured using ChemoTx plates (Neuroprobe). These plates contain a planar polycarbonate or polyester membrane that has been etched and perforated so that cells can move along the etched tracks and fall through perforation holes, enabling the cells to be collected and the number of migrated cells quantified (FIGS. 5-6). Several dilutions (normally 4 in 10-fold increments) are prepared of the agent of interest. For neutrophils, plates with 3 μm pore membranes are used, while for all other primary cell types, 5 μm pore membranes are used. Membranes may, or may not, be coated with polyvinylpyrrolidine (PVP) as a wetting agent.
(§4) For spontaneous migration controls and chemorepulsion (CR) assays, 31 μl of assay medium is pipetted into the lower well of the transmigration apparatus (FIGS. 5-6). For spontaneous migration controls and chemoattraction (CA) assays, 29 μl of assay medium is pipetted into upper chamber of the transmigration apparatus (FIG. 5). For CR, the upper well assay medium contains the agent or candidate chemorepellent. […]

[2] = tested on: Monocytes; assay: as above; type: cell-based, human; details: mean of three donors at concentration of highest activity, range 0.00125-1.25 μM
Excerpt: as §1, §2
It is noted that this procedure may be used to isolate and/or purify monocytes. In the monocyte purification method, a further step is included for platelet removal via the use of CD61 microbeads also purchased from Miltenyi Biotec (Auburn, Calif.).
as §3
For spontaneous migration controls and chemorepulsion (CR) assays, 31 μl of assay medium is pipetted into the lower well of the transmigration apparatus (FIGS. 5-6). […]

[3] = tested on: Neutrophils; assay: as above; type: cell-based, human
[4] = tested on: CD4+; assay: as above; type: cell-based, human; details: mean of three donors at concentration of highest activity, range 0.00125-1.25 μM
Excerpt: as §1, §2, §3, §4

[5] = tested on: CD8+; assay: as above; type: cell-based, human; details: mean of three donors at concentration of highest activity, range 0.00125-1.25 μM
Excerpt: as §1, §2, §3, §4

[6] = tested on: Human primary CD8+ lymphocytes; assay: Trans-well migration assay (Example 3 method), unimodal fugetaxin test; type: cell-based; parameters: key: A “+” in the Table indicates a positive hit as a unimodal fugetaxin, as that term is defined herein, for that particular cell type; details: methods of Example 3
[7] = tested on: Monocyte; assay: Trans-well migration assay (Example 1), net migratory response; details: Monocyte; net observed response
Experimental: Prior to beginning the assay 0.5% Fetal Calf Serum (FCS) in Iscove's Modified Dulbecco's Medium (IMDM) is prepared and stored on ice (Assay Medium). Migratory cells at a concentration of 2×10^7 cells/ml are suspended in Assay Medium. T-cells isolated from donor blood or buffy coats are allowed to rest overnight in Assay Medium at 37° C. in 5% CO2. Neutrophils, monocytes and B cells are utilized as soon as they are purified from donor blood or other source of human origin. Four serial (10×) dilutions of the ligand are then prepared in Assay Medium (normally 10 μg/ml to 0.01 μg/ml).
Plates are removed from the packaging, leaving the membrane behind and intact. The membrane is set aside. Into each well is pipetted 31 μl of solution. For media controls and fugetaxis (chemorepellent) samples, Assay Medium is used. For chemoattraction samples, the appropriate dilution of agent in assay medium is used.
Using a sterile needle, all small bubbles present in each well are popped and the membrane is carefully placed onto the plate, starting at one side and slowly lowering the other edge onto the plate.
Then 29 μl is pipetted into each circle imprinted on the polycarbonate or polyester membrane. For media controls and chemoattraction samples, Assay Medium is used. For fugetaxis (chemorepellent) samples, the appropriate dilution of ligand in assay medium is used.
To each 29 uL aliquot above is added 2 μl of cells (40,000 cells). It is important to ensure that before beginning the cells are well suspended and that they are mixed. This mixing can be accomplished by agitating the tube between each addition.
The plate is then covered with the supplied lid and incubated 1-3 hours in a humidified incubator at 37° C. in 5% CO2. Following the incubation period, the liquid from the top of the plate is removed with a tissue or similar blotting material (e.g. a Kimwipe). The membrane is carefully removed from the top of the plate and discarded. […] Using a multichannel pipettor, each well of the microplate is rinsed with 25 μl Phosphate Buffered Saline (Mediatech #21-040-CV) and transferred to the same wells in the white microplate. Using a multichannel pipettor, 50 μl CellTiter-Glo Luminescent Cell Viability Assay (Promega #G7572) is added to each well and mixed.
The plate is read using the Perkin Elmer Victor^3V plate reader using the Large Aperture Luminescence setting at 8 mm height above the plate with a dwell time of 1 s to quantify the number of migrated cells.
The results reported reflect the net observed migratory response of the cells to the ligand and are not based on the definition of unimodal fugetaxins.

[8] = tested on: Human primary CD4+ lymphocytes; assay: Trans-well migration assay (Example 3 method), unimodal fugetaxin test; type: cell-based; parameters: key: A “+” in the Table indicates a positive hit as a unimodal fugetaxin, as that term is defined herein, for that particular cell type; details: methods of Example 3
[9] = tested on: Human primary neutrophils; assay: as above; type: cell-based; parameters: key to Unimodal fugetaxin hit, Neutrophils: A “+” in the Table indicates a positive hit as a unimodal fugetaxin, as that term is defined herein, for that particular cell type; details: for Unimodal fugetaxin hit, Neutrophils: human neutrophils, methods of Example 3
[10] = tested on: T lymphocytes; assay: High throughput transmigration assay (Example 9), chemorepulsion; type: cell-based, human; details: one donor, triplicate, ± SD
Excerpt: as §1, §2, §3, §4

[11] = tested on: Eo-HL60 (HL-60 clone 15 differentiated to eosinophil-like phenotype); assay: Trans-well migration assay (Example 1), net migratory response; type: cell-based, human; details: net observed response
[12] = Neutrophils, mean of three donors at concentration of highest activity, range 0.00125-1.25 μM

Question: With CCL2: chemokine as the molecule, how does the “Repellent Index” value ([1]; range 0.00125-1.25 μM) read?
Answer: 1.5

Question: What about the “Repellent Index” value [2] of the same molecule?
Answer: 1.7

Question: CCL7: chemokine was tested. Which “Repellent Index” value [2] did it give?
Answer: 2.3

Question: For CCL13: chemokine, which “Repellent Index” value [2] is on record?
Answer: 2.6

Question: For “Elafin: elastase inhibitor (AQEPVKGPVSTKPGSCPIILIRCAMLNPPNRCLKDTDCPGIKKCCEGSCGMACFVPQ; UniProt P19957 61-117, looked up)”, which “Repellent Index” value [3, 12] is on record?
Answer: 2.0

Question: What about the “Repellent Index” value ([3]; neutrophils, 0.00125 μM, one donor, triplicate, ± SD) of the same molecule?
Answer: 1.33 ± 0.28

Question: And the “Repellent Index” value ([3]; neutrophils, 0.0125 μM, one donor, triplicate, ± SD)?
Answer: 1.31 ± 0.29

Question: What about the “Repellent Index” value ([3]; neutrophils, 0.125 μM, one donor, triplicate, ± SD) of the same molecule?
Answer: 1.48 ± 0.22

Question: What about the “Repellent Index” value ([3]; neutrophils, 1.25 μM, one donor, triplicate, ± SD) of the same molecule?
Answer: 2.42 ± 0.52

Question: What about the “Repellent Index” value [4] of the same molecule?
Answer: 1.3

Question: “Galectin-3: carbohydrate binding protein (galectin), full-length, purchased; accession P17931/BAA22164/NP_002297” was tested. Which “Repellent Index” value [3, 12] did it give?
Answer: 1.6

Question: What about the “Repellent Index” value [5] of the same molecule?
Answer: 1.3

Question: And the “Unimodal fugetaxin hit, CD8+” value [6]?
Answer: +

Question: What about the “Migratory Response” value [7] of the same molecule?
Answer: chemorepulsion

Question: What about the “Unimodal fugetaxin hit, CD4+” value [8] of the same molecule?
Answer: +

Question: What about the “Unimodal fugetaxin hit, Neutrophils” value [9] of the same molecule?
Answer: +

Question: What about the “chemotactic (chemoattractant) versus fugetactic (chemorepellent) response of neutrophils” value ([9]; neutrophils, 1 hour, FIGS. 3 and 4, at 10 uM where stated) of the same molecule?
Answer: almost three times as fugetactic (chemorepellent) as chemotactic (chemoattractant)

Question: What does the source list for “HSP70: heat shock protein; accession AAA02807”?
Answer: Repellent Index [3, 12]: 8.8; Repellent Index [4]: 4.9; Repellent Index [5]: 11.6; Repellent Index ([10]; 0.00125 μM): 0.96 ± 0.13; Repellent Index ([10]; 0.0125 μM): 1.15 ± 0.24; Repellent Index ([10]; 0.125 μM): 1.65 ± 0.35; Repellent Index ([10]; 1.25 μM): 14.56 ± 0.61; Migratory Response [11]: chemorepulsion; Unimodal fugetaxin hit, CD4+ [8]: +; Unimodal fugetaxin hit, Neutrophils [9]: +

Question: How did the “Repellent Index” value [3, 12] turn out when Pam3CSK4 [reference compound] was run?
Answer: 4.9

Question: What about the “Unimodal fugetaxin hit, CD8+” value [6] of the same molecule?
Answer: +

Question: And the “Migratory Response” value [11]?
Answer: chemorepulsion

Question: What about the “Unimodal fugetaxin hit, CD4+” value [8] of the same molecule?
Answer: +

Question: What about the “Unimodal fugetaxin hit, Neutrophils” value [9] of the same molecule?
Answer: +

B1: HSP47 Human: heat shock protein; accession AAP35758 (protein, UniProt P50454 19-418, looked up)
Serpin H1: AEVKKPAAAAAPGTAEKLSPKAATLAERSAGLAFSLYQAMAKDQAVENILVSPVVVASSLGLVSLGGKATTASQAKAVLSAEQLRDEEVHAGLGELLRSLSNSTARNVTWKLGSRLYGPSSVSFADDFVRSSKQHYNCEHSKINFRDKRSALQSINEWAAQTTDGKLPEVTKDVERTDGALLVNAMFFKPHWDEKFHHKMVDNRGFMVTRSYTVGVMMMHRTGLYNYYDDEKEKLQIVEMPLAHKLSSLIILMPHHVEPLERLEKLLTKEQLKIWMGKMQKKAVAISLPKGVVEVTHDLQKHLAGLGLTEAIDKNKADLSRMSGKKDLYLASVFHATAFELDTDGNPFDQDIYGREELRSPKLFYADHPFIFLVRDTQSGSLLFIGRLVRPKGDKMRDEL
Question: For B1, which “Repellent Index” value ([1]; range 0.00125-1.25 μM) is on record?
Answer: 1.5

Question: And the “Repellent Index” value [3, 12]?
Answer: 1.4

Question: What about the “Repellent Index” value [5] of the same molecule?
Answer: 1.4

Question: And the “Migratory Response” value [11]?
Answer: chemorepulsion

B2: HSP25: heat shock protein; accession AAA37862 (protein, UniProt P14602 1-209, looked up)
Heat shock protein beta-1: MTERRVPFSLLRSPSWEPFRDWYPAHSRLFDQAFGVPRLPDEWSQWFSAAGWPGYVRPLPAATAEGPAAVTLAAPAFSRALNRQLSSGVSEIRQTADRWRVSLDVNHFAPEELTVKTKEGVVEITGKHEERQDEHGYISRCFTRKYTLPPGVDPTLVSSSLSPEGTLTVEAPLPKAVTQSAEITIPVTFEARAQIGGPEAGKSEQSGAK
Question: Which results are given for B2?
Answer: Repellent Index [3, 12]: 11.9; Repellent Index [5]: 1.3; Unimodal fugetaxin hit, Neutrophils [9]: +

B3: CCL15: chemokine (protein, UniProt Q16663 22-113, looked up)
C-C motif chemokine 15: QFTNDAETELMMSKLPLENPVVLNSFHFAADCCTSYISQSIPCSLMKSYFETSSECSKPGVIFLTKKGRQVCAKPSGPGVQDCMKKLKPYSI
Question: Which “Repellent Index” value [2] does the source give for B3 here?
Answer: 1.4

B4: CXCL7: chemokine (protein, UniProt P02775 35-128, looked up)
Platelet basic protein: SSTKGQTKRNLAKGKEESLDSDLYAELRCMCIKTTSGIHPKNIQSLEVIGKGTHCNQVEVIATLKDGRKICLDPDAPRIKKIVQKKLAGDESAD
Question: For B4, which “Repellent Index” value [3, 12] is on record?
Answer: 3.9

Question: And the “Repellent Index” value [2]?
Answer: 1.4

B5: S. typhimurium Flagellin: TLR ligand; accession M11332 (protein, UniProt P06179 2-495, looked up)
Flagellin: AQVINTNSLSLLTQNNLNKSQSALGTAIERLSSGLRINSAKDDAAGQAIANRFTANIKGLTQASRNANDGISIAQTTEGALNEINNNLQRVRELAVQSANSTNSQSDLDSIQAEITQRLNEIDRVSGQTQFNGVKVLAQDNTLTIQVGANDGETIDIDLKQINSQTLGLDTLNVQQKYKVSDTAATVTGYADTTIALDNSTFKASATGLGGTDQKIDGDLKFDDTTGKYYAKVTVTGGTGKDGYYEVSVDKTNGEVTLAGGATSPLTGGLPATATEDVKNVQVANADLTEAKAALTAAGVTGTASVVKMSYTDNNGKTIDGGLAVKVGDDYYSATQNKDGSISINTTKYTADDGTSKTALNKLGGADGKTEVVSIGGKTYAASKAEGHNFKAQPDLAEAAATTTENPLQKIDAALAQVDTLRSDLGAVQNRFNSAITNLGNTVNNLTSARSRIEDSDYATEVSNMSRAQILQQAGTSVLAQANQVPQNVLSLLR
Question: B5 was tested. Which “Repellent Index” value ([1]; range 0.01-10 μg/ml) did it give?
Answer: 1.7

Question: And the “Repellent Index” value ([3]; Neutrophils, mean of three donors at concentration of highest activity, range 0.01-10 μg/ml)?
Answer: 5.5

Question: What about the “Unimodal fugetaxin hit, CD8+” value [6] of the same molecule?
Answer: +

Question: And the “Migratory Response” value [7]?
Answer: chemorepulsion

Question: What about the “Unimodal fugetaxin hit, CD4+” value [8] of the same molecule?
Answer: +

Question: What about the “Unimodal fugetaxin hit, Neutrophils” value [9] of the same molecule?
Answer: +

B6: CCL8: chemokine (protein, UniProt P80075 24-99, looked up)
C-C motif chemokine 8: QPDSVSIPITCCFNVINRKIPIQRLESYTRITNIQCPKEAVIFKTKRGKEVCADPKERWVRDSMKHLDQIFQNLKP
Question: How did the “Repellent Index” value ([1]; range 0.00125-1.25 μM) turn out when B6 was run?
Answer: 2.6

Question: What about the “Repellent Index” value [2] of the same molecule?
Answer: 2.3

B7: CCL19: chemokine (protein, UniProt Q99731 22-98, looked up)
C-C motif chemokine 19: GTNDAEDCCLSVTQKPIPGYIVRNFHYLLIKDGCRVPAVVFTTLRGRQLCAPPDQPWVERIIQRLQRTSAKMKRRSS
Question: Which “Repellent Index” value ([1]; range 0.00125-1.25 μM) does the source give for B7 here?
Answer: 2.0

Question: And the “Repellent Index” value [3, 12]?
Answer: 1.5

Question: And the “Repellent Index” value [4]?
Answer: 1.7
